One assay deals with A549. Put plainly: Cytotoxicity against human A549 cells by MTT assay. The class given is functional, cell-based. (In general: Formazan colour is commonly taken as a measure of viable cells.)
In a further assay the test system is NCI-H460. Briefly: Cytotoxicity against human H460 cells by MTT assay. It counts as functional, cell-based.

This is an account of results in ChEMBL document CHEMBL1139066, “Analogues of 2-crotonyloxymethyl-(4R,5R,6R)-4,5,6-trihydroxycyclohex-2-enone (COTC) with anti-tumor properties” (Bioorg Med Chem Lett, 2007).

The structures appear in SMILES notation. Where only a bound is given, the exact number is not on record here.

Turning to `C/C=C/C(=O)OCC1=C[C@@H](O)[C@H](O)CC1=O`, the values for the IC50 in the assay on A549 and with NCI-H460 were 147 µM and 158 µM, respectively.

Take `C/C=C/C(=O)OCC1=C[C@H]2O[C@](C)(OC)[C@@](C)(OC)O[C@@H]2CC1=O`: the IC50 in the assay with A549 was 32 µM; in the assay on NCI-H460, 60 µM.

As for `C/C=C/C(=O)OCC1=C[C@H]2O[C@](C)(OC)[C@@](C)(OC)O[C@@H]2[C@H](F)C1=O`, the IC50 in the assay with A549 was found to be 31 µM; in the assay on NCI-H460, 43 µM.

As to `C/C=C/C(=O)OCC1=CC(O)CCC1=O` (configuration not stated), the figures for the IC50 in the assay on A549 and in the assay with NCI-H460 were 24 µM and 10 µM, respectively.

`C/C=C/C(=O)OCC1=C[C@@H](O)[C@H](O)[C@H](F)C1=O`: the IC50 with A549 was 164 µM; in the assay with NCI-H460, greater than 200 µM.

On to `C/C=C/C(=O)OCC1=CCCCC1=O`, for which the figures for the IC50 in the assay with A549 and in the assay on NCI-H460 were 55 µM and 40 µM, respectively.

As usually defined, the IC50 is the midpoint of a concentration-inhibition curve.
